From US20110275673A1, “INHIBITORS OF SPHINGOSINE KINASE 1” (priority 2008, published 2011)

Target: T1, SPHK-1 (Homo sapiens, UniProt Q9NYA1)
T1 construct: purchased BPS Bioscience
Assay: Reporter Assay: sphingosine kinase conversion of fluorescein-labeled sphingosine, read on Lab Chip 3000
Type: biochemical
Details: 2 μM Fl-sphingosine, 25 μM ATP, 300 ng/ml SK1, 1 hour at room temperature; from percent conversion of substrate to product; read-out: SPHK-1 IC50 (n =)
Procedure: Sphingosine kinase is a 49 kDa enzyme that catalyzes the formation of sphingosine-1-phosphate (S-1-P) from sphingosine.
Fluorescein labeled sphingosine was obtained from Echelon Biosciences (S-100F). Buffer reagents (1 M Hepes, 10 triton x-100, 100% glycerol, dithiothreitol 1 M MgCl2, ATP, 500 mM EDTA and DMSO) were purchased from Sigma. Coating reagent (CR-3), was obtained from Caliper Life Sciences.
0.05% Triton X-100, 2.5% glycerol, 0.1% CR-3, and 0,6% DMSO. Termination butler included 100 mM Hepes (pH 7.5), 40 mM EDTA, 0.05% Triton X-100, 2.5% glycerol, 0.3% CR-3, and 0.6% DMSO.
All assay components were made in reaction buffer. […] The assaylvas allowed to incubate at room temperature sealed and protected from light for 1 hour.
After 1 hour, 10 μl of termination buffer was added to terminate, the reaction, and the plate was read on a Lab Chip 3000. The plate was read for one cycle. The Lab Chip separated substrate and product based on charge.
Results were calculated based on percent conversion of substrate to product using the following formula: […]
Percent inhibition and IC50's for compounds of the invention were determined using the percent conversion values obtained horn the Lab Chip.

T1 sequence (Q9NYA1 whole entry): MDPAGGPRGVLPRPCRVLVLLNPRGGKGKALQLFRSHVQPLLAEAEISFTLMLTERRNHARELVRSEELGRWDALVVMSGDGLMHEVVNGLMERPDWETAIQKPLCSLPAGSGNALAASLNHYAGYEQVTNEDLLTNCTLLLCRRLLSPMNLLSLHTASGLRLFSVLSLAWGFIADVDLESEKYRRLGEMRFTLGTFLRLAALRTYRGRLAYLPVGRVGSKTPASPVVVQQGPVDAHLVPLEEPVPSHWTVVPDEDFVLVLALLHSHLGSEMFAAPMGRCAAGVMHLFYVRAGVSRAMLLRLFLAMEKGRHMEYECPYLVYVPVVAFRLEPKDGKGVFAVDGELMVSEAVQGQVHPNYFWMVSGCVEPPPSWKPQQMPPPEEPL

Point of comparison: `CCCCCCSCCCCc1ccc(NC(=O)[C@H]2NCC[C@@H]2O)cc1` [Example 41, (2S,3S)-N-(4-(4-(hexylthio)butyl)phenyl)-3-hydroxy-pyrrolidine-2-carboxamide], IC50 0.002 µM. Against it:
- C[C@@H](O)[C@H](N)C(=O)Nc1ccc(CCCCCCCOc2ccc(F)cc2)cc1 [Example 17, (2S,3R)-2-Amino-N-(4-(7-(4-fluorophenoxy)heptyl)phenyl)-3-hydroxy-butanamide] — 1800-fold higher, 3.6 µM
- CCCCCCCCc1ccc(NC(=O)[C@H](N)[C@@H](C)O)cc1 [Example 31, (2R,3R)-2-Amino-3-hydroxy-N-(4-octylphenyl) butanamide] — 800-fold higher, 1.6 µM
- CCCCCCCCCCCc1ccc(NC(=O)[C@@H](N)[C@@H](C)O)cc1 [Example 7, (2S,3R)-2-Amino-3-hydroxy-N-(4-undecylphenyl) butanamide] — 55-fold higher, 0.11 µM
- CCCCCCCCc1cnc(-c2ccc(CNC(=O)[C@H]3NCC[C@@H]3O)cc2)s1 [Example 106, (2S,3S)-3-hydroxy-N-(4-(5-octylthiazol-2-yl)benzyl)pyrrolidine-2-carboxamide] — 35-fold higher, 0.07 µM
- CC(C)CCCCCCc1ccc(NC(=O)[C@@H](N)[C@@H](C)O)cc1 [Example 16, (2S,3R)-2-Amino-3-hydroxy-N-(4-(7-methyloctyl)phenyl) butanamide] — 75-fold higher, 0.15 µM
- CCCCCCCCc1ccc(CCNC(=O)[C@H]2NCC[C@@H]2O)cc1 [Example 44, (2S,3S)-3-hydroxy-N-(4-octylphenethyl) pyrrolidine-2-carboxamide] — 3200-fold higher, 6.5 µM
- CCCCCCCCc1ccc(NC(=O)[C@H]([C@H](C)O)N(Cc2ccccc2)Cc2ccccc2)cc1 [Example 49, (2S,3S)-2-(dibenzyl-amino)-3-hydroxy-N-(4-octylphenyl) butanamide] — higher, > 1 µM
- CCCCCCCCOc1ccc(NC(=O)[C@@H](N)[C@@H](C)O)cc1 [Example 18, (2S,3R)-2-Amino-3-hydroxy-N-(4-(octyloxy)phenyl) butanamide] — 230-fold higher, 0.46 µM
- CCCCCCCc1nc(-c2ccc(CNC(=O)[C@@H](N)CCO)cc2)no1 [Example 83, (S)-2-Amino-N-(4-(5-heptyl-1,2,4-oxadiazol-3-yl)benzyl)-4-hydroxybutanamide] — 300-fold higher, 0.6 µM
- CCCCCCCCc1ccc(NC(=O)[C@@H](N)CCCCO)cc1 [Example 52, (S)-2-Amino-6-hydroxy-N-(4-octylphenyl) hexanamide] — 2000-fold higher, 4 µM
- CCCCCCCCCCc1ccc(NC(=O)[C@H]2NCCC[C@H]2O)cc1 (relative stereo) [Example 45, cis-N-(4-decylphenyl)-3-hydroxy-piperidine-2-carboxamide] — higher, > 10 µM
- CCCc1ccc(-c2nc(-c3ccc(CNC(=O)[C@H]4NCC[C@@H]4O)cc3)no2)cc1 [Example 81, (2S,3S)-3-Hydroxy-N-(4-(5-(4-propylphenyl)-1,2,4-oxadiazol-3-yl)benzyl)pyrrolidine-2-carboxamide] — 900-fold higher, 1.8 µM
- CCCCCCCCCc1ccc(NC(=O)C(N)CO)cc1 (racemic) [Example 13, (+/−)-2-Amino-3-hydroxy-N-(4-nonylphenyl) propanamide] — 1900-fold higher, 3.8 µM
- CCCCCCCc1ccc(CNC(=O)[C@H]2NCC[C@@H]2O)cc1 [Example 37, (2S,3S)-N-(4-heptylbenzyl)-3-hydroxy-pyrrolidine-2-carboxamide] — 230-fold higher, 0.47 µM
- CCCCCCCCc1cc2cc(CNC(=O)[C@H]3NCC[C@@H]3O)ccc2o1 [Example 107, (2S,3S)-3-Hydroxy-N-((2-octylbenzofuran-5-yl)methyl)pyrrolidine-2-carboxamide] — 16-fold higher, 0.031 µM
- O=C(Nc1ccc(CCCCCCCOc2ccc(F)cc2)cc1)[C@H]1NCC[C@@H]1O [Example 25, (2S,3S)-N-(4-(7-(4-Fluorophenoxy)heptyl)phenyl)-3-hydroxy-pyrrolidine-2-carboxamide] — 180-fold higher, 0.37 µM
- CCCCCCCCc1ccc(-c2ccc(NC[C@@H](N)[C@@H](C)O)cc2)cc1 [Example 60, (2R,3R)-3-Amino-4-(4′-octylbiphenyl-4-ylamino)butan-2-ol] — 1200-fold higher, 2.3 µM
- O=C(NCc1ccc2oc(C3CCCCC3)cc2c1)[C@H]1NCC[C@@H]1O [Example 115, (2S,3S)—N-((2-Cyclohexylbenzofuran-5-yl)methyl)-3-hydroxypyrrolidine-2-carboxamide] — 600-fold higher, 1.2 µM
- O=C(NCc1ccc(-n2cc(CCc3ccccc3)nn2)cc1)[C@H]1NCC[C@@H]1O [Example 65, (2S,3S)-3-Hydroxy-N-(4-(4-phenethyl-1H-1,2,3-triazol-1-yl)benzyl)pyrrolidine-2-carboxamide] — 800-fold higher, 1.6 µM
- O=C(NCc1ccc(-c2noc(C3CCC(F)(F)CC3)n2)cc1)[C@H]1NCC[C@@H]1O [Example 92, (2S,3S)—N-(4-(5-(4,4-Difluorocyclohexyl)-1,2,4-oxadiazol-3-yl)benzyl)-3-hydroxypyrrolidine-2-carboxamide] — 3200-fold higher, 6.4 µM
- CCCCCCCCc1cccc(NC(=O)[C@@H](N)[C@@H](C)O)c1 [Example 11, (2S,3R)-2-Amino-3-hydroxy-N-(3-octylphenyl) butanamide] — 1400-fold higher, 2.9 µM
- CCCCCCCCOCc1ccc(NC(=O)[C@H]2NCC[C@@H]2O)cc1 [Example 21, (2S,3S)-3-Hydroxy-N-(4-(octyloxymethyl)phenyl) pyrrolidine-2-carboxamide] — 2.4-fold higher, 0.0049 µM
- CCCCCCSCCc1ccc(NC(=O)[C@H]2NCC[C@@H]2O)cc1 [Example 40, (2S,3S)-N-(4-(2-(hexylthio)ethyl)phenyl)-3-hydroxy-pyrrolidine-2-carboxamide] — 3.5-fold higher, 0.007 µM
- CCCCCCCCc1ccc(NC(=O)[C@H](CO)NC)cc1 [Example 51, (S)-3-Hydroxy-2-(methylamino)-N-(4-octylphenyl) propanamide] — 1400-fold higher, 2.8 µM
- CCCCCCCCc1ccc(NC(=O)[C@@H](N)CO)cc1 [Example 4, (S)-2-Amino-3-hydroxy-N-(4-octylphenyl) propanamide] — 2200-fold higher, 4.3 µM
- O=C(NCc1ccc2oc(CCCOc3ccc(F)cc3)cc2c1)[C@H]1NCC[C@@H]1O [Example 110, (2S,3S)—N-((2-(3-(4-Fluorophenoxy)propyl)benzofuran-5-yl)methyl)-3-hydroxypyrrolidine-2-carboxamide] — 2600-fold higher, 5.2 µM
- O=C(NCc1cc(F)c2oc(C3CCCCC3)cc2c1)[C@H]1NCC[C@@H]1O [Example 122, (2S,3S)—N-((2-Cyclohexyl-7-fluorobenzofuran-5-yl)methyl)-3-hydroxypyrrolidine-2-carboxamide] — 400-fold higher, 0.79 µM
- CCCCC(=O)CCCCCc1ccc(NC(=O)[C@@H](N)[C@@H](C)O)cc1 [Example 33, (2S,3R)-2-amino-3-hydroxy-N-(4-(6-oxodecyl)phenyl) butanamide] — 3000-fold higher, 6.1 µM
- CCCCCCOCc1ccc(NC(=O)[C@@H](N)[C@@H](C)O)cc1 [Example 15, (2S,3R)-2-Amino-N-(4-(hexyloxymethyl)phenyl)-3-hydroxy-butanamide] — 4100-fold higher, 8.2 µM
- O=C(NCc1ccc2oc(CCC3CCCCC3)cc2c1)[C@H]1NCC[C@@H]1O [Example 117, (2S,3S)—N-((2-(2-Cyclohexylethyl)benzofuran-5-yl)-methyl)-3-hydroxypyrrolidine-2-carboxamide] — 220-fold higher, 0.43 µM
- CCCCCCCCCCCCc1ccc(NC(=O)[C@@H](N)[C@@H](C)O)cc1 [Example 8, (2S,3R)-2-Amino-N-(4-dodecylphenyl)-3-hydroxy-butanamide] — 95-fold higher, 0.19 µM
- CCCCCCCCCCc1ccc(NC(=O)[C@@H](N)[C@@H](C)O)cc1 [Example 6, (2S,3R)-2-Amino-N-(4-decylphenyl)-3-hydroxy-butanamide] — 23-fold higher, 0.046 µM
- CCCCCCCCc1ccc(NC(=O)[C@@H](N)[C@@H](C)O)cc1 [Example 29, (2S,3R)-2-Amino-3-hydroxy-N-(4-octylphenyl) butanamide] — 440-fold higher, 0.87 µM
- O=C(Nc1ccc(CCCOc2ccc(F)cc2)cc1)[C@H]1NCC[C@@H]1O [Example 23, (2S,3S)-N-(4-(3-(4-Fluorophenoxy)propyl)phenyl)-3-hydroxy-pyrrolidine-2-carboxamide] — 750-fold higher, 1.5 µM
- CCCCCCCCc1ccc(NC(=O)[C@H](N)CO)cc1 [Example 3, (R)-2-Amino-3-hydroxy-N-(4-octylphenyl) propanamide] — 2500-fold higher, 5 µM
- O=C(NCc1ccc(-n2cc(CCc3ccccc3)cn2)cc1)[C@H]1NCC[C@@H]1O [Example 69, (2S,3S)-3-Hydroxy-N-(4-(4-phenethyl-1H-pyrazol-1-yl)benzyl)pyrrolidine-2-carboxamide] — 32-fold higher, 0.065 µM
- CCCCCCCc1ccc(-c2noc(CNC(=O)[C@H]3NCC[C@@H]3O)n2)cc1 [Example 77, (2S,3S)—N-((3-(4-Heptylphenyl)-1,2,4-oxadiazol-5-yl)methyl)-3-hydroxypyrrolidine-2-carboxamide] — 110-fold higher, 0.22 µM
- CCCCCCCSCc1ccc(CNC(=O)[C@H]2NCC[C@@H]2O)cc1 [Example 43, (2S,3S)-N-(4-(heptylthio-methyl)benzyl)-3-hydroxy-pyrrolidine-2-carboxamide] — 90-fold higher, 0.18 µM
- CCCCCCCCCCc1ccc(NC(=O)[C@@H]2C[C@@H](O)CCN2)cc1 [Example 124, (2S,4S)—N-(4-decylphenyl)-4-hydroxypiperidine-2-carboxamide] — 1400-fold higher, 2.7 µM
- CCCCCCCCc1ccc(NC(=O)[C@H](N)[C@H](C)O)cc1 [Example 30, (2R,3S)-2-Amino-3-hydroxy-N-(4-octylphenyl) butanamide] — 1000-fold higher, 2.1 µM
